Measured values taken from patent publication US20260132129A1 (Genesis Therapeutics, Inc., priority 2022, published 2026).

Target: T1, PI3Kα H1047R (T47D cells) (Homo sapiens, UniProt P42336, H1047R)
T1 construct: endogenous in cells; host or cells: T47D cells
Assay: PI3Kα cellular assay: pAKT HTRF in T47D cells after EGF stimulation
Assay type: cell-based
Conditions: for IC50: T47D cells (PI3Kα H1047R), pAKT S473 HTRF
Outline: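 pAKT read by HTRF in lysates of EGF-stimulated (20 ng/mL, 10 min) T47D H1047R cells. Before stimulation, serum-starved cells (16 h) received compound for 1 h at 37 °C, dosed from 10,000 nM down to 0.5 nM in 3-fold steps.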

[1] = selectivity T47D (H1047R) over SKBR3 (WT), pAKT HTRF
[2] = selectivity of T47D (H1047R) over SKBR3 (WT) pAKT IC50
[3] = 1 hr compound, 20 ng/ml EGF 10 min

T1 sequence (P42336 whole entry H1047R): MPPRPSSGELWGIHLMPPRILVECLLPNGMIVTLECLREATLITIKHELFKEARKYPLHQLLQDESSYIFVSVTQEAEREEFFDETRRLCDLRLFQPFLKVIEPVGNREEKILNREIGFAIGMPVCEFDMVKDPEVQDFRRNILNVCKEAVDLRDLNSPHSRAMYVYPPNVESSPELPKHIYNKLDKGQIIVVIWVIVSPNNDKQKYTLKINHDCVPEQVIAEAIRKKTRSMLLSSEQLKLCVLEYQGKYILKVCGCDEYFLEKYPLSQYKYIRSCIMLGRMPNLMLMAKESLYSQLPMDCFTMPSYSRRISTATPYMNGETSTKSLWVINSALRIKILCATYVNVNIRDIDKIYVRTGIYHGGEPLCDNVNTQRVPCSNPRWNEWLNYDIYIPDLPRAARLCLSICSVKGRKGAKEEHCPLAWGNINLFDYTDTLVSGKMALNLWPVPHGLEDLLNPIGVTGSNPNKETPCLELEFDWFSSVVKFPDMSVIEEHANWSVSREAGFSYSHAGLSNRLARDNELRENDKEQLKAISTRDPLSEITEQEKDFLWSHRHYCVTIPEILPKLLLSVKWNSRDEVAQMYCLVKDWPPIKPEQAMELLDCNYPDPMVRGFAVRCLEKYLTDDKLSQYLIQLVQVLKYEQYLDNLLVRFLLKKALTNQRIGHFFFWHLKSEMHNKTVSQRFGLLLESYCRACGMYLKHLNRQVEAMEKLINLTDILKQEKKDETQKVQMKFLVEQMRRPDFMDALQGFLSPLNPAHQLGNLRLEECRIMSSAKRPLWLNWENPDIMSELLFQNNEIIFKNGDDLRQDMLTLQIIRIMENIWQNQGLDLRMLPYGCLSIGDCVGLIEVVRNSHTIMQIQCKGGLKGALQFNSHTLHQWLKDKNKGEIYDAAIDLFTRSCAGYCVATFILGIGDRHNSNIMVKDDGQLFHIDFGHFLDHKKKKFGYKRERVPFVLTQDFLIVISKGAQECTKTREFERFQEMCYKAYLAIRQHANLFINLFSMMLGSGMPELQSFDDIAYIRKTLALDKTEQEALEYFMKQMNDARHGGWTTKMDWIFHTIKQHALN
T1 sequence (P27986 whole entry partner): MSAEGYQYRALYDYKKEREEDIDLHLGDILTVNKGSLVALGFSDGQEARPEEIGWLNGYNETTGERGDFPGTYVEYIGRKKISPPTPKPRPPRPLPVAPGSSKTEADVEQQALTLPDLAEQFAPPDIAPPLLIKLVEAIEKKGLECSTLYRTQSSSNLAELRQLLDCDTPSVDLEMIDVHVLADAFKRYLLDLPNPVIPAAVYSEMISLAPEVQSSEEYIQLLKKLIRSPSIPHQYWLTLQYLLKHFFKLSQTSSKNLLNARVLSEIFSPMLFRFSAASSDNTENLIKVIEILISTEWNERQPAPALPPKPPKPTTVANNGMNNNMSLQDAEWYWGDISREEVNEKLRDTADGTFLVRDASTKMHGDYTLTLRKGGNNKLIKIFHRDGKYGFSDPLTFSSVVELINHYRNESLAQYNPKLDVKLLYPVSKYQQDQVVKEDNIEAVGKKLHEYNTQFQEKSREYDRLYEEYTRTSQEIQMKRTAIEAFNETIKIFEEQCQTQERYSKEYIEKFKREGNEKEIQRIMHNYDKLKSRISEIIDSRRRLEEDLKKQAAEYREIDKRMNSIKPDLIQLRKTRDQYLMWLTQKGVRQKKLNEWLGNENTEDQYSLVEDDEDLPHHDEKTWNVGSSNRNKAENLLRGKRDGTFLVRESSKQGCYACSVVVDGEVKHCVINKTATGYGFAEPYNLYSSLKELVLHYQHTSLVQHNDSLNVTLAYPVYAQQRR

Cc1cc([C@@H](C)Nc2ccccc2S(N)(=O)=O)c2nc(-c3ccc(C4CCOCC4)nc3)c(C)c(=O)n2c1 [Compound 1294]
IC50 (EGF stimulation): 500 to 2000 nM | T47D pAKT S473 HTRF IC50 (H1047R): T47D (H1047R) selectivity over SKBR3 (WT) [1]: B (B denotes 20-fold≥value>5-fold)

C[C@@H]1C[C@H](C)CN(c2cc(=O)n3cc(C(F)(F)F)cc([C@@H](C)Nc4ccccc4C(=O)O)c3n2)C1 [Compound 1036]
IC50 (EGF stimulation): < 100 nM | T47D pAKT S473 HTRF IC50 (H1047R): T47D (H1047R) selectivity over SKBR3 (WT) [2]: A (A denotes >20-fold)

CC(=O)N1CCC(c2cc(=O)n3cc(C)cc([C@@H](C)Nc4ccccc4C(=O)O)c3n2)CC1 [Compound 522]
IC50 [3]: > 2000 nM | T47D pAKT S473 HTRF IC50 (H1047R): T47D (H1047R) selectivity over SKBR3 (WT) [1]: C (C denotes ≤5-fold)

Cc1cc([C@@H](C)Nc2ccccc2S(C)(=O)=O)c2nc(-c3ccc4c(C)cn(C)c4c3)c(C)c(=O)n2c1 [Compound 1061]
T47D pAKT S473 HTRF IC50 (H1047R): T47D (H1047R) selectivity over SKBR3 (WT) [1]: C (C denotes ≤5-fold)

Cc1cc([C@H](C)Nc2ccccc2C(=O)O)c2nc(N3CCS(=O)(=O)CC3)cc(=O)n2c1 [Compound 139]
IC50 [3]: > 2000 nM | T47D pAKT S473 HTRF IC50 (H1047R): T47D (H1047R) selectivity over SKBR3 (WT) [1]: C (C denotes ≤5-fold)

Cc1cc([C@@H](C)Nc2ccccc2C(=O)O)c2nc(-c3ccc4c(c3)c(C)nn4C)cc(=O)n2c1 (single isomer, unassigned) [Compound 739]
IC50 (EGF stimulation): > 2000 nM | T47D pAKT S473 HTRF IC50 (H1047R): T47D (H1047R) selectivity over SKBR3 (WT) [2]: C (C denotes ≤5-fold)

Cc1cc([C@@H](C)Nc2ccccc2C(=O)O)c2nc(-c3ccc4nc(CO)[nH]c4c3)cc(=O)n2c1 [Compound 488]
IC50 [3]: > 2000 nM | T47D pAKT S473 HTRF IC50 (H1047R): T47D (H1047R) selectivity over SKBR3 (WT) [1]: C (C denotes ≤5-fold)

Cc1cc([C@H](C)Nc2ccccc2C(=O)O)c2nc(-c3ccc4c(c3)CC(=O)N4)cc(=O)n2c1 [Compound 764]
T47D pAKT S473 HTRF IC50 (H1047R): T47D (H1047R) selectivity over SKBR3 (WT) [2]: A (A denotes >20-fold)

Cc1cc([C@@H](C)Nc2ccccc2C(=O)O)c2nc(N3CCN(C)CC3)cc(=O)n2c1 [Compound 394]
IC50 [3]: > 2000 nM | T47D pAKT S473 HTRF IC50 (H1047R): T47D (H1047R) selectivity over SKBR3 (WT) [1]: C (C denotes ≤5-fold)

Cc1cc([C@H](C)Nc2ccccc2C(=O)O)c2nc(C3C[C@@H](C)O[C@@H](C)C3)cc(=O)n2c1 (some centres unmarked) [Compound 925]
IC50 (EGF stimulation): 500 to 2000 nM | T47D pAKT S473 HTRF IC50 (H1047R): T47D (H1047R) selectivity over SKBR3 (WT) [2]: B (B denotes 20-fold≥value>5-fold)

Cc1cc([C@@H](C)Nc2ccccc2C(=O)O)c2nc(-c3ccc4c(c3)c(C)cn4C)cc(=O)n2c1 [Compound 797]
IC50 (EGF stimulation): > 2000 nM | T47D pAKT S473 HTRF IC50 (H1047R): T47D (H1047R) selectivity over SKBR3 (WT) [2]: C (C denotes ≤5-fold)

Cc1cc([C@H](C)Nc2ccccc2-c2ccnnc2)c2nc([C@@H]3CCCOC3)c(C)c(=O)n2c1 [Compound 1407]
IC50 (EGF stimulation): < 100 nM | T47D pAKT S473 HTRF IC50 (H1047R): T47D (H1047R) selectivity over SKBR3 (WT) [1]: A (A denotes >20-fold)

Cc1cc([C@@H](C)Nc2ccccc2C(=O)O)c2nc(-c3cccc(C(F)F)c3)c(C)c(=O)n2c1 [Compound 1077]
IC50 (EGF stimulation): 500 to 2000 nM | T47D pAKT S473 HTRF IC50 (H1047R): T47D (H1047R) selectivity over SKBR3 (WT) [1]: B (B denotes 20-fold≥value>5-fold)

Cc1cc(C(C)Nc2ccccc2C(=O)O)c2nc(C3CCC(C)(C)CC3)cc(=O)n2c1 (centres unmarked) [Compound 622]
IC50 [3]: 100 to 500 nM | T47D pAKT S473 HTRF IC50 (H1047R): T47D (H1047R) selectivity over SKBR3 (WT) [1]: A (A denotes >20-fold)

Cc1cc(C(C)Nc2ccccc2C(=O)O)c2nc(-c3ccc4c(c3)NC(=O)C4)cc(=O)n2c1 (centres unmarked) [Compound 506]
IC50 [3]: 500 to 2000 nM | T47D pAKT S473 HTRF IC50 (H1047R): T47D (H1047R) selectivity over SKBR3 (WT) [1]: B (B denotes 20-fold≥value>5-fold)

Cc1cc([C@H](C)NC2=C(C(=O)O)C=CCC2)c2nc(-c3ccc(CC4CCN(C(=O)C5CC5)CC4)nc3)cc(=O)n2c1 [Compound 784]
IC50 (EGF stimulation): > 2000 nM | T47D pAKT S473 HTRF IC50 (H1047R): T47D (H1047R) selectivity over SKBR3 (WT) [2]: C (C denotes ≤5-fold)

Cc1cc([C@H](C)Nc2ccccc2C(=O)O)c2nc(-c3ccc4c(c3)c(C)nn4C)cc(=O)n2c1 (single isomer, unassigned) [Compound 740]
IC50 (EGF stimulation): < 100 nM | T47D pAKT S473 HTRF IC50 (H1047R): T47D (H1047R) selectivity over SKBR3 (WT) [2]: A (A denotes >20-fold)

Cc1cc(C(C)Nc2ccccc2C(=O)O)c2nc(N3Cc4ccccc4C3)c(C#N)c(=O)n2c1 (centres unmarked) [Compound 1160]
IC50 (EGF stimulation): < 100 nM | T47D pAKT S473 HTRF IC50 (H1047R): T47D (H1047R) selectivity over SKBR3 (WT) [1]: A (A denotes >20-fold)

Cc1cc([C@@H](C)Nc2ccccc2C(=O)O)c2nc(C#CC3CC3)cc(=O)n2c1 [Compound 1224]
T47D pAKT S473 HTRF IC50 (H1047R): T47D (H1047R) selectivity over SKBR3 (WT) [1]: C (C denotes ≤5-fold)

Cc1cc(C(C)Nc2ccccc2S(C)(=O)=O)c2nc(N3CCOCC3)cc(=O)n2c1 (centres unmarked) [Compound 134]
T47D pAKT S473 HTRF IC50 (H1047R): T47D (H1047R) selectivity over SKBR3 (WT) [1]: B (B denotes 20-fold≥value>5-fold)

Cc1ccc(N[C@H](C)c2cc(C)cn3c(=O)c(C)c(-c4cccc(F)c4)nc23)c(C(=O)O)c1 [Compound 1357]
T47D pAKT S473 HTRF IC50 (H1047R): T47D (H1047R) selectivity over SKBR3 (WT) [1]: C (C denotes ≤5-fold)

Cc1cc([C@H](C)Nc2ccccc2C(=O)O)c2cc(-c3ccnnc3)cc(=O)n2c1 [Compound 484]
IC50 [3]: > 2000 nM | T47D pAKT S473 HTRF IC50 (H1047R): T47D (H1047R) selectivity over SKBR3 (WT) [1]: C (C denotes ≤5-fold)

Cc1cc(C(C)Nc2ccccc2C(=O)O)c2nc(OC3CCCOC3)c(C)c(=O)n2c1 (centres unmarked) [Compound 1254]
IC50 (EGF stimulation): 100 to 500 nM | T47D pAKT S473 HTRF IC50 (H1047R): T47D (H1047R) selectivity over SKBR3 (WT) [1]: A (A denotes >20-fold)
